Test system: MV-4-11 cells
Experiment: Gene expression microarray analysis (Affymetrix PrimeView) and GSEA
Format: cell-based, human
Design: RFU PODN (11730768_x_at) / Fold change /veh PODN (11730768_x_at) / RFU LINC00158 (11744669_a_at) / Fold change /veh LINC00158 (11744669_a_at) / RFU DUSP10 (11751237_a_at) / Fold change /veh DUSP10 (11751237_a_at) / RFU ID3 (11757404_x_at) / Fold change /veh ID3 (11757404_x_at) / RFU PLEKHG5 (11737974_s_at) / Fold change /veh PLEKHG5 (11737974_s_at) / RFU LRRC4B (11730491_at) / Fold change /veh LRRC4B (11730491_at) / RFU GIMAP4 (11747438_a_at) / Fold change /veh GIMAP4 (11747438_a_at) / RFU KRT8 (11758183_x_at) / Fold change /veh KRT8 (11758183_x_at) / RFU CNN1 (11734310_a_at) / Fold change /veh CNN1 (11734310_a_at) / RFU VPS37D (11726825_at) / Fold change /veh VPS37D (11726825_at) / RFU C10orf10 (11716522_x_at) / Fold change /veh C10orf10 (11716522_x_at) / RFU KIR2DL2 /// KIR2DL4 /// KIR2DL5A /// KIR2DL5B /// KIR2DS1 /// KIR2DS2 /// KIR2DS3 /// KIR2DS4 /// KIR3DL3 /// KIR3DL3 /// KIR3DS1 (11738374_at) / Fold change /veh KIR2DL2 /// KIR2DL4 /// KIR2DL5A /// KIR2DL5B /// KIR2DS1 /// KIR2DS2 /// KIR2DS3 /// KIR2DS4 /// KIR3DL3 /// KIR3DL3 /// KIR3DS1 (11738374_at) / RFU C1QL1 (11718748_at) / Fold change /veh C1QL1 (11718748_at) / RFU TMPRSS4 (11747572_a_at) / Fold change /veh TMPRSS4 (11747572_a_at) / RFU HAMP (11756126_x_at) / Fold change /veh HAMP (11756126_x_at) / RFU RNFT2 (11725882_a_at) / Fold change /veh RNFT2 (11725882_a_at) / RFU NR4A2 (11747474_a_at) / Fold change /veh NR4A2 (11747474_a_at) / RFU ABCC12 (11746883_a_at) / Fold change /veh ABCC12 (11746883_a_at) / RFU TMEM136 (11760407_x_at) / Fold change /veh TMEM136 (11760407_x_at) / RFU CLDN22 /// WWC2 (11732394_at) / Fold change /veh CLDN22 /// WWC2 (11732394_at) / RFU HLA-DPB1 (11760878_x_at) / Fold change /veh HLA-DPB1 (11760878_x_at) / RFU SPINT1 (11716480_a_at) / Fold change /veh SPINT1 (11716480_a_at) / RFU GAP43 (11754022_s_at) / Fold change /veh GAP43 (11754022_s_at) / RFU A4GNT (11735810_at) / Fold change /veh A4GNT (11735810_at) / RFU PRB3 (11715151_x_at) / Fold change /veh PRB3 (11715151_x_at) / RFU TUBB4B (11761932_at) / Fold change /veh TUBB4B (11761932_at) / RFU CAPN14 (11732068_a_at) / Fold change /veh CAPN14 (11732068_a_at) / RFU TMCC2 (11721928_a_at) / Fold change /veh TMCC2 (11721928_a_at) / RFU IRGQ (11745062_a_at) / Fold change /veh IRGQ (11745062_a_at) / RFU FAM174B (11720279_a_at) / Fold change /veh FAM174B (11720279_a_at) / RFU TMPRSS4 (11748680_a_at) / Fold change /veh TMPRSS4 (11748680_a_at) / RFU FAM212B (11763350_a_at) / Fold change /veh FAM212B (11763350_a_at) / RFU PLEKHG5 (11743358_a_at) / Fold change /veh PLEKHG5 (11743358_a_at) / RFU ZSCAN30 (11745921_a_at) / Fold change /veh ZSCAN30 (11745921_a_at) / RFU CMKLR1 (11741424_a_at) / Fold change /veh CMKLR1 (11741424_a_at) / RFU LOC101060620 /// MAPK8IP1 (11723275_at) / Fold change /veh LOC101060620 /// MAPK8IP1 (11723275_at) / RFU SPTSSB (11747773_x_at) / Fold change /veh SPTSSB (11747773_x_at) / RFU PRSS12 (11739890_at) / Fold change /veh PRSS12 (11739890_at) / RFU BIN1 (11741810_x_at) / Fold change /veh BIN1 (11741810_x_at) / RFU WNT11 (11732464_a_at) / Fold change /veh WNT11 (11732464_a_at) / RFU C10orf10 (11716521_a_at) / Fold change /veh C10orf10 (11716521_a_at) / RFU C5orf56 (11738089_at) / Fold change /veh C5orf56 (11738089_at) / RFU CYB561 (11721691_x_at) / Fold change /veh CYB561 (11721691_x_at) / RFU ANKRD19P (11752326_a_at) / Fold change /veh ANKRD19P (11752326_a_at) / RFU OR2T12 /// OR2T33 /// OR2T8 (11738714_s_at) / Fold change /veh OR2T12 /// OR2T33 /// OR2T8 (11738714_s_at) / RFU VCAN (11748164_a_at) / Fold change /veh VCAN (11748164_a_at) / RFU JSRP1 (11732532_at) / Fold change /veh JSRP1 (11732532_at) / RFU KRTAP10-11 (11738290_x_at) / Fold change /veh KRTAP10-11 (11738290_x_at) / RFU MYO3A (11730013_a_at) / Fold change /veh MYO3A (11730013_a_at) / RFU EBF3 (11725865_a_at) / Fold change /veh EBF3 (11725865_a_at) / RFU CAMK2N1 (11719241_x_at) / Fold change /veh CAMK2N1 (11719241_x_at) / RFU C5orf56 (11738088_a_at) / Fold change /veh C5orf56 (11738088_a_at) / RFU OLFML3 (11715873_a_at) / Fold change /veh OLFML3 (11715873_a_at) / RFU LOC100653217 /// NTM (11731650_a_at) / Fold change /veh LOC100653217 /// NTM (11731650_a_at) / RFU MAPK11 (11762145_a_at) / Fold change /veh MAPK11 (11762145_a_at) / RFU FIZ1 (11724087_x_at) / Fold change /veh FIZ1 (11724087_x_at) / RFU OASL (11726364_x_at) / Fold change /veh OASL (11726364_x_at) / RFU SOX15 (11748057_x_at) / Fold change /veh SOX15 (11748057_x_at) / RFU CD79A (11719716_a_at) / Fold change /veh CD79A (11719716_a_at) / RFU HIST1H1D (11736915_at) / Fold change /veh HIST1H1D (11736915_at) / RFU CASKIN2 (11723855_a_at) / Fold change /veh CASKIN2 (11723855_a_at) / RFU LOC730098 (11760151_x_at) / Fold change /veh LOC730098 (11760151_x_at) / RFU OR4N2 (11742367_at) / Fold change /veh OR4N2 (11742367_at) / RFU PRRT2 (11749266_a_at) / Fold change /veh PRRT2 (11749266_a_at) / RFU SNX32 (11753110_a_at) / Fold change /veh SNX32 (11753110_a_at) / RFU CDHR5 (11726645_a_at) / Fold change /veh CDHR5 (11726645_a_at) / RFU RCAN1 (11760418_a_at) / Fold change /veh RCAN1 (11760418_a_at) / RFU FAM167A (11723789_a_at) / Fold change /veh FAM167A (11723789_a_at) / RFU FAM26E (11764081_at) / Fold change /veh FAM26E (11764081_at) / RFU ISYNA1 (11749810_s_at) / Fold change /veh ISYNA1 (11749810_s_at) / RFU ACY1 (11761880_at) / Fold change /veh ACY1 (11761880_at) / RFU 11764098_at / Fold change /veh 11764098_at / RFU SAMD14 (11745864_x_at) / Fold change /veh SAMD14 (11745864_x_at) / RFU NPB (11741838_a_at) / Fold change /veh NPB (11741838_a_at) / RFU TMPRSS6 (11731388_a_at) / Fold change /veh TMPRSS6 (11731388_a_at) / RFU KRTAP10-2 (11738614_at) / Fold change /veh KRTAP10-2 (11738614_at) / RFU ARHGAP8 /// PRR5-ARHGAP8 (11727945_x_at) / Fold change /veh ARHGAP8 /// PRR5-ARHGAP8 (11727945_x_at) / RFU KRTAP5-7 /// NADSYN1 (11734609_at) / Fold change /veh KRTAP5-7 /// NADSYN1 (11734609_at) / RFU RASL12 (11751679_a_at) / Fold change /veh RASL12 (11751679_a_at) / RFU CDKN2B (11736163_a_at) / Fold change /veh CDKN2B (11736163_a_at) / RFU PRF1 (11729649_at) / Fold change /veh PRF1 (11729649_at) / RFU, ZNF638 /// ZNF638-IT1 / Fold change vs veh, ZNF638 /// ZNF638-IT1 / RFU, PANK3 / Fold change vs veh, PANK3 / RFU, SH3YL1 / Fold change vs veh, SH3YL1 / RFU, ZEB2 / Fold change vs veh, ZEB2 / RFU, NRIP1 / Fold change vs veh, NRIP1 / RFU, PTTG1IP / Fold change vs veh, PTTG1IP / RFU, CAPN2 / Fold change vs veh, CAPN2 / RFU, MED14 / Fold change vs veh, MED14 / RFU, SNORA58 / Fold change vs veh, SNORA58 / RFU, C1orf63 / Fold change vs veh, C1orf63 / RFU, LRRFIP1 / Fold change vs veh, LRRFIP1 / RFU, NDUFAF7 / Fold change vs veh, NDUFAF7 / RFU, SLC12A2 / Fold change vs veh, SLC12A2 / RFU, IBTK / Fold change vs veh, IBTK / RFU, ESF1 / Fold change vs veh, ESF1 / Fold change vs veh, TMEM50B / RFU, TAOK1 / Fold change vs veh, TAOK1 / RFU, ACBD3 / Fold change vs veh, ACBD3 / RFU, TMA16 / Fold change vs veh, TMA16 / RFU, RWDD3 / Fold change vs veh, RWDD3 / RFU, BCAT1 / Fold change vs veh, BCAT1 / RFU, EDEM3 / Fold change vs veh, EDEM3 / RFU, TMEM33 / Fold change vs veh, TMEM33 / RFU, WDR75 / Fold change vs veh, WDR75 / RFU, AHCTF1 / Fold change vs veh, AHCTF1 / RFU, TFRC / Fold change vs veh, TFRC / RFU, ZDHHC17 / Fold change vs veh, ZDHHC17 / RFU, NOM1 / Fold change vs veh, NOM1 / RFU, ARL8B / Fold change vs veh, ARL8B / RFU, ZBTB11 / Fold change vs veh, ZBTB11 / RFU, TAMM41 / Fold change vs veh, TAMM41 / RFU, KIAA1704 /// LOC100996395 / Fold change vs veh, KIAA1704 /// LOC100996395 / RFU, ING1 / Fold change vs veh, ING1 / RFU, TRMT61B / Fold change vs veh, TRMT61B / RFU, FUBP3 / Fold change vs veh, FUBP3 / RFU, TP53 / Fold change vs veh, TP53 / RFU, TNKS2 / Fold change vs veh, TNKS2 / RFU, ZFP14 / Fold change vs veh, ZFP14 / RFU, ACTR2 / Fold change vs veh, ACTR2 / RFU, PPP3R1 / Fold change vs veh, PPP3R1 / RFU, PIK3R1 / Fold change vs veh, PIK3R1 / RFU, HNRNPA1 / Fold change vs veh, HNRNPA1 / RFU, RNF170 / Fold change vs veh, RNF170 / RFU, ZNF28 / Fold change vs veh, ZNF28 / RFU, RNGTT / Fold change vs veh, RNGTT / RFU, OGT / Fold change vs veh, OGT / RFU, BRD1 / Fold change vs veh, BRD1 / RFU, MARS / Fold change vs veh, MARS / RFU, ZNF655 / Fold change vs veh, ZNF655 / RFU, FAHD1 / Fold change vs veh, FAHD1 / RFU, BDP1 / Fold change vs veh, BDP1 / RFU, LRRCC1 / Fold change vs veh, LRRCC1 / RFU, ARID1A / Fold change vs veh, ARID1A / RFU, ZNF146 / Fold change vs veh, ZNF146 / RFU, ZNF330 / Fold change vs veh, ZNF330 / RFU, GPN3 / Fold change vs veh, GPN3 / RFU, C9orf123 / Fold change vs veh, C9orf123 / RFU, N4BP2L2 / Fold change vs veh, N4BP2L2 / RFU, ARFIP1 / Fold change vs veh, ARFIP1 / RFU, FAM179B / Fold change vs veh, FAM179B / RFU, BCL10 / Fold change vs veh, BCL10 / RFU, UHRF1BP1L / Fold change vs veh, UHRF1BP1L / RFU, BET1 / Fold change vs veh, BET1 / RFU, CNOT2 / Fold change vs veh, CNOT2 / RFU, ZNF268 / Fold change vs veh, ZNF268 / Fold change vs veh, ZNF507 / RFU, DGCR2 / Fold change vs veh, DGCR2 / RFU, WDSUB1 / Fold change vs veh, WDSUB1 / Fold change vs veh, HSP90B1 /// MIR3652 / RFU, ADSS / Fold change vs veh, ADSS / RFU, GK / Fold change vs veh, GK / RFU, ZNF148 / Fold change vs veh, ZNF148 / RFU, TAF9 / Fold change vs veh, TAF9 / RFU, SLC1A5 / Fold change vs veh, SLC1A5 / RFU, SLMO2 / Fold change vs veh, SLMO2 / RFU, ABCC4 / Fold change vs veh, ABCC4 / RFU, LOC101060439 /// RAP1B / Fold change vs veh, LOC101060439 /// RAP1B / RFU, RFX7 / Fold change vs veh, RFX7 / RFU, GTPBP10 / Fold change vs veh, GTPBP10 / RFU, CNEP1R1 / Fold change vs veh, CNEP1R1 / RFU, BIVM-ERCC5 /// ERCC5 / Fold change vs veh, BIVM-ERCC5 /// ERCC5 / RFU, ILF3 / Fold change vs veh, ILF3 / RFU 11762660_at / Fold change /veh 11762660_at / RFU VCAN (11757783_s_at) / Fold change /veh VCAN (11757783_s_at) / RFU DDX43 (11728927_at) / Fold change /veh DDX43 (11728927_at) / RFU KRT8 (11758188_x_at) / Fold change /veh KRT8 (11758188_x_at) / RFU NKD1 (11759106_at) / Fold change /veh NKD1 (11759106_at) / RFU SRD5A1 (11742802_a_at) / Fold change /veh SRD5A1 (11742802_a_at) / RFU TPSAB1 /// TPSB2 (11721975_s_at) / Fold change /veh TPSAB1 /// TPSB2 (11721975_s_at) / RFU GSTM3 (11746129_a_at) / Fold change /veh GSTM3 (11746129_a_at) / RFU IL23R (11737362_x_at) / Fold change /veh IL23R (11737362_x_at) / RFU TMEM51 (11727254_a_at) / Fold change /veh TMEM51 (11727254_a_at) / RFU PIWIL2 (11732686_x_at) / Fold change /veh PIWIL2 (11732686_x_at) / RFU ORM1 (11744905_x_at) / Fold change /veh ORM1 (11744905_x_at) / RFU CCDC152 (11743942_at) / Fold change /veh CCDC152 (11743942_at) / RFU ECM1 (11717891_a_at) / Fold change /veh ECM1 (11717891_a_at) / RFU IL23R (11748794_a_at) / Fold change /veh IL23R (11748794_a_at) / RFU TNFAIP8L3 (11732012_x_at) / Fold change /veh TNFAIP8L3 (11732012_x_at) / RFU MBOAT4 (11741988_at) / Fold change /veh MBOAT4 (11741988_at) / RFU 11764193_at / Fold change /veh 11764193_at / RFU TMEM53 (11763286_at) / Fold change /veh TMEM53 (11763286_at) / RFU MAGEB2 (11727129_at) / Fold change /veh MAGEB2 (11727129_at) / RFU TMEM200A (11744735_a_at) / Fold change /veh TMEM200A (11744735_a_at) / RFU CCDC152 (11751479_a_at) / Fold change /veh CCDC152 (11751479_a_at) / RFU FAM211A (11726209_a_at) / Fold change /veh FAM211A (11726209_a_at) / RFU RGS16 (11746705_a_at) / Fold change /veh RGS16 (11746705_a_at) / RFU VCAN (11755009_s_at) / Fold change /veh VCAN (11755009_s_at) / RFU RHOB (11743442_s_at) / Fold change /veh RHOB (11743442_s_at) / RFU RGS16 (11720943_a_at) / Fold change /veh RGS16 (11720943_a_at) / RFU RGS16 (11720944_at) / Fold change /veh RGS16 (11720944_at) / RFU, VPS4B / Fold change vs veh, VPS4B / RFU, CREB1 / Fold change vs veh, CREB1 / RFU, DNAJC13 / Fold change vs veh, DNAJC13 / RFU, GNAQ / Fold change vs veh, GNAQ / RFU, CDK5R1 / Fold change vs veh, CDK5R1 / RFU, ZRANB3 / Fold change vs veh, ZRANB3 / RFU, CUL4A / Fold change vs veh, CUL4A / RFU, CCNY / Fold change vs veh, CCNY / RFU, UFL1 / Fold change vs veh, UFL1 / RFU, COG3 / Fold change vs veh, COG3 / RFU, DIAPH2 / Fold change vs veh, DIAPH2 / RFU, SKA2 / Fold change vs veh, SKA2 / RFU, AFF3 / Fold change vs veh, AFF3 / RFU, LMF1 / Fold change vs veh, LMF1 / RFU, IPO11 / Fold change vs veh, IPO11 / RFU, DFFB / Fold change vs veh, DFFB / RFU, FOXP1 / Fold change vs veh, FOXP1 / RFU, CARD8 / Fold change vs veh, CARD8 / RFU, STRN3 / Fold change vs veh, STRN3 / RFU, ADK / Fold change vs veh, ADK / RFU, RASSF2 / Fold change vs veh, RASSF2 / RFU, WIPF1 / Fold change vs veh, WIPF1 / RFU, LARP1B / Fold change vs veh, LARP1B / RFU, RASA1 / Fold change vs veh, RASA1 / RFU, RB1 / Fold change vs veh, RB1 / RFU, PPFIA1 / Fold change vs veh, PPFIA1 / RFU, MAT2A / Fold change vs veh, MAT2A / RFU, CCT5 / Fold change vs veh, CCT5 / RFU, WDR92 / Fold change vs veh, WDR92 / RFU, CUX1 / Fold change vs veh, CUX1 / RFU, TTC7A / Fold change vs veh, TTC7A / RFU, TMEM135 / Fold change vs veh, TMEM135 / RFU, DEPTOR / Fold change vs veh, DEPTOR / RFU, CPM / Fold change vs veh, CPM / RFU, DNAJB6 / Fold change vs veh, DNAJB6 / RFU, CACNA2D3 / Fold change vs veh, CACNA2D3 / RFU, DTX4 / Fold change vs veh, DTX4 / RFU, TFCP2 / Fold change vs veh, TFCP2 / RFU, GMCL1 /// GMCL1P1 / Fold change vs veh, GMCL1 /// GMCL1P1 / RFU, AEBP2 / Fold change vs veh, AEBP2 / RFU, SNHG1 /// SNORD22 /// SNORD25 /// SNORD26 /// SNORD27 /// SNORD28 /// SNORD29 /// SNORD31 / Fold change vs veh, SNHG1 /// SNORD22 /// SNORD25 /// SNORD26 /// SNORD27 /// SNORD28 /// SNORD29 /// SNORD31 / Fold change (Aza/veh), C12orf56 (ProbeSet 11735607_a_at) / Fold change (ACY-1035/veh), C12orf56 (ProbeSet 11735607_a_at) / Fold change (Aza/veh), FGFR1OP (ProbeSet 11751329_s_at) / Fold change (ACY-1035/veh), FGFR1OP (ProbeSet 11751329_s_at) / Fold change (Aza/veh), VPS36 (ProbeSet 11739960_a_at) / Fold change (ACY-1035/veh), VPS36 (ProbeSet 11739960_a_at) / RFU SYPL1 (11715823_x_at) / Fold change /veh SYPL1 (11715823_x_at) / RFU IGFBP7 (11715501_s_at) / Fold change /veh IGFBP7 (11715501_s_at) / RFU REEP3 (11722064_at) / Fold change /veh REEP3 (11722064_at) / RFU IGLL1 (11728026_x_at) / Fold change /veh IGLL1 (11728026_x_at): dose or concentration left out as unconfirmed
Details: ProbeSet 11719817_x_at; LIST B

## Nc1ccc(-c2cccs2)cc1NC(=O)c1ccc2c(c1)cc(C1CC1)n2CCN1CCOCC1 [ACY-1035]
  RFU, BET1: 86.19 RFU

Reference: paper PMC5218480 (PLoS ONE, 2017)
